Data from the supplement of paper PMC11061612.

How the values were obtained:
Assay in all cases: combination Emax (second highest fraction inhibited in the dose matrix, 72 h); higher = more inhibition; extreme values may be limits of the assay
WM-115 (Melanoma) = tested on: WM-115 (Melanoma)
In short: (§1)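 Bliss excess equals the observed combination effect minus the expected value EA + EB − EA·EB, where EA and EB are the effects of each agent alone. Combination Emax is the second-highest inhibition within the matrix. Inhibition was scaled from CellTiter-Glo 2.0 luminescence, with 0 set by vehicle wells and 1 by blank wells, after 72 hours of two-drug dosing of cells plated in 1536-well plates.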

[1] = tested on: KM12 (Colorectal Carcinoma)
In short: as §1

[2] = tested on: GR-ST (B-Lymphoblastic Leukemia)
In short: as §1

[3] = tested on: NCI-H1792 (Lung Adenocarcinoma)
In short: as §1

ES1 (Ewing's Sarcoma) = tested on: ES1 (Ewing's Sarcoma)
In short: as §1

[4] = tested on: DND-41 (T-Lymphoblastic Leukemia)
In short: as §1

TC-71 (Ewing's Sarcoma) = tested on: TC-71 (Ewing's Sarcoma)
In short: as §1

NCI-H2818 (Mesothelioma) = tested on: NCI-H2818 (Mesothelioma)
In short: as §1

[5] = tested on: MOLT-16 (T-Lymphoblastic Leukemia)
In short: as §1

[6] = tested on: COLO-678 (Colorectal Carcinoma)
In short: as §1

ES8 (Ewing's Sarcoma) = tested on: ES8 (Ewing's Sarcoma)
In short: as §1

[7] = tested on: MFM-223 (Breast Carcinoma)
In short: as §1

[8] = tested on: BL-41 (Burkitt's Lymphoma)
In short: as §1

[9] = tested on: HDQ-P1 (Breast Carcinoma)
In short: as §1

[10] = tested on: KCL-22 (Chronic Myelogenous Leukemia)
In short: as §1

[11] = tested on: P12-ICHIKAWA (T-Lymphoblastic Leukemia)
In short: as §1

[12] = tested on: SR (Other Blood Carcinomas)
In short: as §1

[13] = tested on: DiFi (Colorectal Carcinoma)
In short: as §1

LN-18 (Glioblastoma) = tested on: LN-18 (Glioblastoma)
In short: as §1

| Structure (SMILES) | combination Emax (WM-115 (Melanoma)) | combination Emax [1] | combination Emax [2] | combination Emax [3] | combination Emax (ES1 (Ewing's Sarcoma)) | combination Emax [4] | combination Emax (TC-71 (Ewing's Sarcoma)) | combination Emax (NCI-H2818 (Mesothelioma)) | combination Emax [5] | combination Emax [6] | combination Emax (ES8 (Ewing's Sarcoma)) | combination Emax [7] | combination Emax [8] | combination Emax [9] | combination Emax [10] | combination Emax [11] | combination Emax [12] | combination Emax [13] | combination Emax (LN-18 (Glioblastoma)) |
| --- | --- | --- | --- | --- | --- | --- | --- | --- | --- | --- | --- | --- | --- | --- | --- | --- | --- | --- | --- |
| COc1nnc2ccc(N3CCC(c4ccc(OCCN5CCN(C)C(=O)[C@H]5C)cc4)CC3)nn12 [AZD5153] + C=CCn1c(=O)c2cnc(Nc3ccc(N4CCN(C)CC4)cc3)nc2n1-c1cccc(C(C)(C)O)n1 [AZD1775] (first compound max 1 µM, partner max 1 µM) | 0.338 | 0.853 | 0.832 | 0.83 | 0.686 | 0.941 | 0.935 | 0.327 | 1 | 0.531 | 0.779 | 0.538 | 1 | 0.523 | 0.927 | 1 | 0.96 | 0.727 | 0.649 |
| COc1nnc2ccc(N3CCC(c4ccc(OCCN5CCN(C)C(=O)[C@H]5C)cc4)CC3)nn12 [AZD5153] + CC1(C)CCC(CN2CCN(c3ccc(C(=O)NS(=O)(=O)c4ccc(NCC5CCOCC5)c([N+](=O)[O-])c4)c(Oc4cnc5[nH]ccc5c4)c3)CC2)=C(c2ccc(Cl)cc2)C1 [Venetoclax] (first compound max 1 µM, 7x7, partner max 1 µM) | 0.365 | 0.643 | 0.788 | 0.676 | 0.482 | 0.835 | 0.657 | 0.268 | 1 | 0.408 | 0.719 | 0.305 | 0.87 | 0.325 | 0.666 | 0.932 | 0.749 | 0.586 | 0.638 |
| COc1nnc2ccc(N3CCC(c4ccc(OCCN5CCN(C)C(=O)[C@H]5C)cc4)CC3)nn12 [AZD5153] + CCN(CCO)CCCOc1ccc2c(Nc3cc(CC(=O)Nc4cccc(F)c4)[nH]n3)ncnc2c1 [AZD2811] (first compound max 1 µM, 7x7, partner max 1 µM) | 0.37 | 0.66 | 0.818 | 0.668 | 0.612 | 0.667 | 0.884 | 0.292 | 1 | 0.506 | 0.994 | 0.415 | 0.874 | 0.431 | 0.68 | 1 | 0.913 | 0.667 | 0.632 |
| COc1nnc2ccc(N3CCC(c4ccc(OCCN5CCN(C)C(=O)[C@H]5C)cc4)CC3)nn12 [AZD5153] + CN(CC[C@H](CSC1=CC=CC=C1)NC2=C(C=C(C=C2)S(=O)(=O)NC(=O)C3=CC=C(C=C3)N4CCC(CC4)[C@H](C5=CC=CC=C5C6=CC=C(C=C6)Cl)O)S(=O)(=O)C(F)(F)F)CCO [AZD4320] (first compound max 1 µM, 7x7, partner max 1 µM) |  | 0.648 |  |  |  |  | 0.814 |  | 1 | 0.459 |  | 0.544 |  | 0.967 | 0.963 | 1 |  | 0.818 | 0.605 |
| COc1nnc2ccc(N3CCC(c4ccc(OCCN5CCN(C)C(=O)[C@H]5C)cc4)CC3)nn12 [AZD5153] + C[C@@H]1COCCN1C2=NC(=NC(=C2)C3(CC3)[S@](=N)(=O)C)C4=C5C=CNC5=NC=C4 [AZD6738] (first compound max 1 µM, 7x7, partner max 10 µM) | 0.481 | 0.88 | 0.846 | 0.805 | 0.918 | 0.979 | 0.997 | 0.281 | 1 | 0.484 | 0.907 | 0.734 | 1 | 0.571 | 0.978 | 1 | 0.937 | 0.844 | 0.815 |
| COc1nnc2ccc(N3CCC(c4ccc(OCCN5CCN(C)C(=O)[C@H]5C)cc4)CC3)nn12 [AZD5153] + Cc1c2c(nn1C)CSCc1cc(n(C)n1)CSc1cc(c3ccccc3c1)OCCCc1c(C(=O)O)n(C)c3c-2c(Cl)ccc13 [AZD5991] (first compound max 1 µM, 7x7, partner max 1 µM) | 0.707 | 0.648 | 0.798 | 0.877 | 0.955 | 0.845 | 0.996 | 0.441 | 1 | 0.51 | 0.891 | 0.587 | 1 | 0.412 | 0.902 | 1 | 0.968 | 0.768 | 0.616 |
| COc1nnc2ccc(N3CCC(c4ccc(OCCN5CCN(C)C(=O)[C@H]5C)cc4)CC3)nn12 [AZD5153] + Cn1cnc2c(F)c(Nc3ccc(Br)cc3Cl)c(C(=O)NOCCO)cc21 [Selumetinib] (first compound max 1 µM, 7x7, partner max 10 µM) | 0.832 | 0.786 | 0.782 | 0.78 | 0.458 | 0.893 | 0.762 | 0.27 | 0.949 | 0.615 | 0.681 | 0.507 | 0.863 | 0.431 | 0.957 | 0.99 | 0.675 | 0.962 | 0.721 |
| NC1(C(=O)N[C@@H](CCO)c2ccc(Cl)cc2)CCN(c2ncnc3[nH]ccc23)CC1 [Capivasertib] + CC(=O)c1c(C)c2cnc(Nc3ccc(N4CCNCC4)cn3)nc2n(C2CCCC2)c1=O [Palbociclib] (first compound max 10 µM, 7x7, partner max 10 µM) | 0.574 | 0.853 | 0.75 | 0.553 | 0.765 | 0.462 | 0.511 | 0.316 | 0.924 | 0.354 | 0.64 | 0.882 | 0.419 | 0.302 | 0.612 | 0.739 | 0.844 | 0.619 | 0.731 |
| NC1(C(=O)N[C@@H](CCO)c2ccc(Cl)cc2)CCN(c2ncnc3[nH]ccc23)CC1 [Capivasertib] + CC(C)n1c(=O)n(C)c2cnc3cc(F)c(-c4ccc(OCCCN5CCCCC5)nc4)cc3c21 [AZD1390] (first compound max 10 µM, 7x7, partner max 0.3 µM) | 0.565 | 0.755 | 0.611 | 0.179 | 0.452 | 0.165 | 0.263 | 0.224 | 0.719 | 0.146 | 0.545 | 0.864 | 0.297 | 0.215 | 0.266 | 0.489 | 0.361 | 0.592 | 0.432 |
| NC1(C(=O)N[C@@H](CCO)c2ccc(Cl)cc2)CCN(c2ncnc3[nH]ccc23)CC1 [Capivasertib] + CCN(CCO)CCCOc1ccc2c(Nc3cc(CC(=O)Nc4cccc(F)c4)[nH]n3)ncnc2c1 [AZD2811] (first compound max 10 µM, 7x7, partner max 1 µM) | 0.583 | 0.77 | 0.702 | 0.34 | 0.905 | 0.224 | 0.854 | 0.294 | 1 | 0.222 | 1 | 0.918 | 0.706 | 0.321 | 0.472 | 1 | 0.957 | 0.658 | 0.597 |
| NC1(C(=O)N[C@@H](CCO)c2ccc(Cl)cc2)CCN(c2ncnc3[nH]ccc23)CC1 [Capivasertib] + COc1nnc2ccc(N3CCC(c4ccc(OCCN5CCN(C)C(=O)[C@H]5C)cc4)CC3)nn12 [AZD5153] (first compound max 10 µM, 7x7, partner max 1 µM) | 0.778 | 0.847 | 0.832 | 0.537 | 0.694 | 0.679 | 0.797 | 0.238 | 1 | 0.396 | 0.798 | 0.852 | 0.974 | 0.416 | 0.792 | 0.994 | 0.769 | 0.718 | 0.779 |
| CC(=O)c1c(C)c2cnc(Nc3ccc(N4CCNCC4)cn3)nc2n(C2CCCC2)c1=O [Palbociclib] + CN(CC[C@H](CSC1=CC=CC=C1)NC2=C(C=C(C=C2)S(=O)(=O)NC(=O)C3=CC=C(C=C3)N4CCC(CC4)[C@H](C5=CC=CC=C5C6=CC=C(C=C6)Cl)O)S(=O)(=O)C(F)(F)F)CCO [AZD4320] (first compound max 10 µM, 7x7, partner max 1 µM) |  | 0.768 |  |  |  |  | 0.828 |  | 1 | 0.354 |  | 0.406 |  | 0.677 | 0.82 | 1 |  | 0.812 | 0.517 |
| C[C@@H](c1ccc2nccn2c1)n1nnc2ncc(-c3cnn(C)c3)nc21 [Savolitinib] + CN(CC[C@H](CSC1=CC=CC=C1)NC2=C(C=C(C=C2)S(=O)(=O)NC(=O)C3=CC=C(C=C3)N4CCC(CC4)[C@H](C5=CC=CC=C5C6=CC=C(C=C6)Cl)O)S(=O)(=O)C(F)(F)F)CCO [AZD4320] (first compound max 1 µM, 7x7, partner max 1 µM) |  | 0.139 |  |  |  |  | 0.585 |  | 1 | 0.226 |  | 0.225 |  | 0.591 | 0.268 | 1 |  | 0.495 | 0.163 |
